According to US20260207600A1, “METHODS OF TREATMENT WITH MYOSIN MODULATOR” (MYOKARDIA, INC., priority 2019, published 2026):

Tested on: subjects with symptomatic non-obstructive hypertrophic cardiomyopathy (nHCM)
Assay: […]-HCM Phase 2 randomized, double-blind, placebo-controlled, concentration-guided study
Assay type: in vivo, human
Design: Overall KCCQ Summary Score / Clinical KCCQ Summary Score / Change in Overall KCCQ Summary Score, Mean / Change in Clinical KCCQ Summary Score, Mean / Change from Baseline in Overall KCCQ Summary Score, Mean / Change from Baseline in Clinical KCCQ Summary Score, Mean: scale not given here
Settings: for Composite functional endpoint Type 1, % / Composite functional endpoint Type 2, % / Met composite functional endpoint, either type, %: Combined Subgroup
Source text: This is a Phase 2 trial designed to assess the safety and tolerability of a range of exposures over 16 weeks of treatment in subjects with symptomatic, non-obstructive HCM. All study subjects were required to be diagnosed with non-obstructive HCM, with left ventricular wall thickness either ≥15 mm or ≥13 mm with a family history of HCM, LVEF≥55%, NYHA classifications of Class II or III, and NT-proBNP levels of greater than 300 pg/mL at rest. Baseline characteristics, such as age, weight, gender, pathogenic mutation status, background beta blocker use, NYHA classification and exercise capacity were approximately evenly distributed between active and placebo arms.
This double-blind study enrolled 59 individuals with nHCM (Left ventricular outflow tract gradient<30 mmHg; resting or provoked), NYHA Class II or III, and LVEF≥55%. Subjects were randomized 1:1:1 to one of two target plasma drug concentrations (Group 1: ~200 ng/mL and Group 2: ~ 500 ng/ml) or placebo for 16 weeks, followed by an 8-week washout. […] Predefined criteria, including LVEF (LVEF≤45%), guided study drug discontinuation if indicated. Cardiopulmonary exercise testing was performed at baseline and Week 16 to assess the impact on exercise capacity.
Dose adjustments will be based on PK parameters. Assessments include safety, standardized cardiopulmonary exercise testing (CPET) with measurement of peak oxygen consumption, echocardiography to evaluate left ventricular ejection fraction (LVEF) and parameters of diastolic function, symptoms, quality of life, daily step counts, and NT-proBNP at rest and after exercise. In addition, subjects may consent to hypertrophic cardiomyopathy genotyping and pharmacogenetic sampling.
Cardiac Troponin I levels were evaluated on plasma and serum samples of subjects at baseline and at various time points in the trial (Abbott Architect Stat Troponin-I assay (Ref. 2K41)). Cardiac Troponin T levels were evaluated on plasma and serum samples of subjects at baseline and at various time points in the trial (Roche Elecsys Troponin T hs assay) (Ref. 08469873190) performed on a cobas e 801 analyzer). NT-proBNP levels were evaluated on plasma samples using the Roche Elecsys proBNPII assay (Ref. 07027664190) on a cobas e 801 analyzer.
5 mg QD was used as the starting dose for the study. All subjects in the active treatment groups started on 5 mg QD. […] PK modeling was used to guide blinded dose adjustment at the Week 6 visit, based on the plasma concentrations collected at Week 4. Subjects in the placebo group underwent the same assessments in order to preserve the blind. […] Subjects were instructed to take the drug under fasting conditions, at approximately the same time each day, and with 8 ounces of water.
To achieve the target concentration, if a subject's Week 4 concentration was >450 ng/ml, the subject's dose was decreased to 2.5 mg QD; if Week 4 concentration was 110-450 ng/mL, the dose was maintained at 5 mg QD; and if Week 4 concentration was <110 ng/mL, the dose was increased to 10 mg QD.
Subjects were monitored for adverse events (AE), including high blood plasma concentration, systolic dysfunction, QT prolongation, and LVEF decrease. If any of the following thresholds were hit PK 1000 or more, QTcF 500, or LVEF 45%, the subjects were discontinued on drug. Specifically, high blood plasma concentration was defined as blood plasma concentration greater than or equal to 1000 ng/ml; QT prolongation was defined as QTcF greater than or equal to 500 ms; and LVEF shortening was defined as LVEF less than or equal to 45% (including serious adverse event (SAE) for LVEF less than or equal to 30%).
Efficacy and pharmacodynamics assessments were also made. Resting transthoracic echocardiography measurements were taken at Weeks 4, 8, 12 and 16. Ejection fraction (2-D) and LV frantional shortening were analyzed along with other echocardiographic at baseline measures including measure of diastolic function. […]

[1] = Elevated Troponin subgroup (N = 13), Mean
[2] = Elevated Troponin subgroup, Mean Difference vs Placebo
[3] = ITT, Group 1 ~200 ng/mL (n = 19)
[4] = ITT, Group 2 ~500 ng/mL (n = 21)
[5] = ITT, Week 16, pooled-mavacamten group
[6] = Other subgroup, Mean Difference vs Placebo
[7] = Subgroup with Elevated E/e′ at Baseline, Difference mavacamten vs placebo
[8] = Subgroup with Elevated E/e′ at Baseline, Pooled (n = 14)
[9] = Subgroup with Elevated cTnI at Baseline, Difference mavacamten vs placebo
[10] = Subgroup with Elevated cTnI at Baseline, Pooled (n = 13)
[11] = week 16, pooled-mavacamten group

CC(C)n1c(=O)cc(N[C@@H](C)c2ccccc2)[nH]c1=O [mavacamten, (S)-3-Isopropyl-6-((1-phenylethyl)amino)pyrimidine-2, 4(1H,3H)-dione]
participants with a decrease in LVEF to ≤45% (5 participants among the 40 receiving active treatment, weeks 11-12): 12.5%
Composite functional endpoint Type 1, % (Group 1 ~200 ng/mL (n = 9)): (11.1) %
Composite functional endpoint Type 2, % (Group 1 ~200 ng/mL (n = 9)): (22.2) %
Met composite functional endpoint, either type, % (Group 1 ~200 ng/mL (n = 9)): (33.3) %
Composite functional endpoint Type 1, % (Group 2 ~500 ng/mL (n = 12)): (8.3) %
Composite functional endpoint Type 2, % (Group 2 ~500 ng/mL (n = 12)): (25.0) %
Met composite functional endpoint, either type, % (Group 2 ~500 ng/mL (n = 12)): (33.3) %
Composite functional endpoint Type 1, % (Pooled (n = 21)): (9.5) %
Composite functional endpoint Type 2, % (Pooled (n = 21)): (23.8) %
Met composite functional endpoint, either type, % (Pooled (n = 21)): (33.3) %
Average Daily Accelerometry Unit [1]: 136328
Clinical KCCQ Summary Score [1]: 6.891
NYHA Class [1]: −0.462
Overall KCCQ Summary Score [1]: 6.410
Peak VO2 [1]: 1.475 mL/min/kg
Serum NT-proBNP [1]: -950.462 ng/L
Serum Troponin I [1]: -0.123 ng/mL
Average Daily Accelerometry Unit [2]: 350347
Clinical KCCQ Summary Score [2]: 8.766
NYHA Class [2]: −0.262
Overall KCCQ Summary Score [2]: 1.896
Peak VO2 [2]: 2.695 mL/min/kg
Serum NT-proBNP [2]: -784.062 ng/L
Serum Troponin I [2]: -0.083 ng/mL
participants achieving the composite functional endpoint (ITT, Group 1): 16%
Change in Clinical KCCQ Summary Score, Mean [3]: 0.11
Change in LVEDV, Mean [3]: 1.15 mL
Change in LVEF, Mean [3]: −2.30%
Change in Lateral e′, Mean [3]: 0.34 cm/s
Change in NYHA Class, Mean [3]: −0.6
Change in Overall KCCQ Summary Score, Mean [3]: 0.35
Change in Peak VO2, Mean [3]: 0.36 mL/min/kg
Change in Septal e′, Mean [3]: 0.64 cm/s
NT-proBNP, Geometric mean, percent change [3]: −47.1%
cTnI, Geometric mean, percent change [3]: −23.4%
participants achieving the composite functional endpoint (ITT, Group 2): 29%
Change in Clinical KCCQ Summary Score, Mean [4]: 5.66
Change in LVEDV, Mean [4]: 6.50 mL
Change in LVEF, Mean [4]: −5.61%
Change in Lateral e′, Mean [4]: 1.46 cm/s
Change in NYHA Class, Mean [4]: −0.3
Change in Overall KCCQ Summary Score, Mean [4]: 6.24
Change in Peak VO2, Mean [4]: 0.12 mL/min/kg
Change in Septal e′, Mean [4]: 1.60 cm/s
NT-proBNP, Geometric mean, percent change [4]: −57.9%
cTnI, Geometric mean, percent change [4]: −41.0%
Change in Clinical KCCQ Summary Score, Mean (ITT, Pooled (n = 40)): 3.37
Change in LVEDV, Mean (ITT, Pooled (n = 40)): 4.04 mL
Change in LVEF, Mean (ITT, Pooled (n = 40)): −4.09%
Change in Lateral e′, Mean (ITT, Pooled (n = 40)): 0.94 cm/s
Change in NYHA Class, Mean (ITT, Pooled (n = 40)): −0.4
Change in Overall KCCQ Summary Score, Mean (ITT, Pooled (n = 40)): 3.82
Change in Peak VO2, Mean (ITT, Pooled (n = 40)): 0.22 mL/min/kg
Change in Septal e′, Mean (ITT, Pooled (n = 40)): 1.17 cm/s
NT-proBNP, Geometric mean, percent change (ITT, Pooled (n = 40)): −53.2%
cTnI, Geometric mean, percent change (ITT, Pooled (n = 40)): −34.0%
cTnI geometric mean difference [5]: -0.008 ng/mL
cTnI geometric mean, decrease [5]: 34%
Average Daily Accelerometry Unit (Other subgroup (N = 27), Mean): 82413
Clinical KCCQ Summary Score (Other subgroup (N = 27), Mean): 1.195
NYHA Class (Other subgroup (N = 27), Mean): −0.417
Overall KCCQ Summary Score (Other subgroup (N = 27), Mean): 2.210
Peak VO2 (Other subgroup (N = 27), Mean): -0.530 mL/min/kg
Serum NT-proBNP (Other subgroup (N = 27), Mean): -280.667 ng/L
Serum Troponin I (Other subgroup (N = 27), Mean): -0.003 ng/mL
Average Daily Accelerometry Unit [6]: 293157
Clinical KCCQ Summary Score [6]: −5.964
NYHA Class [6]: 0.122
Overall KCCQ Summary Score [6]: −4.495
Peak VO2 [6]: -1.807 mL/min/kg
Serum NT-proBNP [6]: -178.513 ng/L
Serum Troponin I [6]: -0.004 ng/mL
Change from Baseline in Clinical KCCQ Summary Score, Mean [7]: 4.1
Change from Baseline in LVEDVi, Mean [7]: 3.9 mL/m^2
Change from Baseline in NT-proBNP, Mean [7]: -355 ng/L
Change from Baseline in NYHA Class, Mean [7]: 0.0
Change from Baseline in Overall KCCQ Summary Score, Mean [7]: 0.4
Change from Baseline in Peak VO2, Mean [7]: 1.9 mL/min/kg
Change from Baseline in cTnI, Mean [7]: -0.07 ng/mL
Change from Baseline in Clinical KCCQ Summary Score, Mean [8]: 4.6
Change from Baseline in LVEDVi, Mean [8]: 2.8 mL/m^2
Change from Baseline in NT-proBNP, Mean [8]: -656 ng/L
Change from Baseline in NYHA Class, Mean [8]: −0.4
Change from Baseline in Overall KCCQ Summary Score, Mean [8]: 4.7
Change from Baseline in Peak VO2, Mean [8]: 1.2 mL/min/kg
Change from Baseline in cTnI, Mean [8]: -0.09 ng/mL
Change from Baseline in Clinical KCCQ Summary Score, Mean [9]: 8.8
Change from Baseline in LVEDVi, Mean [9]: 0.042 mL/m^2
Change from Baseline in NT-proBNP, Mean [9]: -784 ng/L
Change from Baseline in NYHA Class, Mean [9]: −0.3
Change from Baseline in Overall KCCQ Summary Score, Mean [9]: 1.9
Change from Baseline in Peak VO2, Mean [9]: 2.70 mL/min/kg
Change from Baseline in cTnI, Mean [9]: -0.083 ng/mL
Change from Baseline in Clinical KCCQ Summary Score, Mean [10]: 6.9
Change from Baseline in LVEDVi, Mean [10]: 0.79 mL/m^2
Change from Baseline in NT-proBNP, Mean [10]: -951 ng/L
Change from Baseline in NYHA Class, Mean [10]: −0.5
Change from Baseline in Overall KCCQ Summary Score, Mean [10]: 6.4
Change from Baseline in Peak VO2, Mean [10]: 1.47 mL/min/kg
Change from Baseline in cTnI, Mean [10]: -0.12 ng/mL
subjects with transient ejection fraction reductions below the protocol-defined threshold of 45% (active drug arms): five
participants achieving the composite functional endpoint (combined subgroup (elevated cTnI or E/e′average >14 at baseline), mavacamten-treated): 33%
study subjects in whom cTnI levels remained unchanged (elevated cTnI subgroup, week 16 (2 of 13)): 15.4%
study subjects in whom cTnI levels decreased (elevated cTnI subgroup, week 16 vs baseline (11 of 13)): 84.6%
Serious adverse events (SAEs), frequency in subjects (subjects receiving mavacamten, placebo arm 21%): 10%
percentage change in cardiac troponin I from baseline (treated individuals): 30-80%
NT-proBNP geometric mean, decrease (week 16, Group 1): 47%
NT-proBNP geometric mean, decrease (week 16, Group 2): 58%
NT-proBNP geometric mean difference [11]: -435 pg/mL
NT-proBNP geometric mean, decrease [11]: 53%
